In one data set the test system is hTERT-RPE1 3D spheroids. Kind of data set: Cytotoxicity on normal RPE1 3D spheroids (acid phosphatase method). In kind it is cell-based, human. The note with it: 120 h. The method, then: These cell lines were generously provided by Prof. Stig Linder, Karolinska Institute (Sweden).
Cytotoxicity was calculated according to the following equation: […]

For the next data set, the system named is MCF7 cell line. Kind of data set: Pro-apoptotic activity, M30 Cytodeath ELISA (CK18-Asp396). It counts as cell-based, human. To be noted: MCF7 monolayers, 50 µM, 24 h. The method, then:
The pro-apoptotic activity is measured as fold increase of the spontaneous apoptosis occurred in the DMSO treated negative control ± standard deviation.
The cutoff was determined as fourfold increase in the apoptosis signal of the negative control.
The accumulation of CK18-Asp396 in treated MCF7 cell cultures was quantified using the M-30 Cytodeath® ELISA kit according to the manufacturer’s instructions. Briefly, the MCF7 cell line monolayers were exposed to the chemical compounds at a concentration of 50 µM. Following 24 h of incubation, the culture medium was supplemented with 0.1% NP40. Subsequently, aliquots of 25 µL from each well, containing CK18 released into the medium from attached and floating cells and cell fragments, were subjected to the ELISA assay. Cleaved CK18 levels were determined by measuring the absorbance at 450 nm[46].
A general note: ELISA stands for enzyme-linked immunosorbent assay.

In a further data set the test system is MCF7. Kind of data set: Cytotoxicity on MCF7 monolayers (MTT assay). The note with it: Homo sapiens, MCF7, 72 h, read-out: Mean of % cytotoxicity ± SD. For orientation: Formazan colour is commonly taken as a measure of viable cells.
Another data set has as its system MCF7 3D spheroids. Kind of data set: Cytotoxicity on MCF7 3D multicellular spheroids (acid phosphatase method). To be noted: for cytotoxicity at 50 µM: MCF7, 120 h, read-out: Mean of % cytotoxicity ± S.D.
The next data set concerns MCF7 breast cancer cells. In words: Gene expression profiling by real-time PCR (p53, Bax, Bcl-2, IL-6, TNF-alpha, MMP1). In kind it is cell-based, human. To be noted: MCF7, IC50 concentration, 24 h, qRT-PCR. The method, then:
Total RNA was extracted from both control and treated cells using the RNeasy kit. Up to one million cells were subjected to disruption in Buffer RLT, homogenization, and ethanol treatment to promote selective binding of RNA to the RNeasy membrane. High-purity RNA was subsequently eluted using RNase-free water. All binding, washing, and elution steps were performed using centrifugation in a micro-centrifuge. The sample was then applied to an RNeasy Mini spin column, enabling total RNA retention on the membrane while contaminants were efficiently eliminated. The RNA was then used as a template for real-time PCR to quantify the mRNA levels of genes. Two sets of primers were used—one for the IL-6, TNF-alpha, MMP1, p53, Bcl-2, and Bax genes and another for the endogenous control gene, β-actin (Table 6). The real-time PCR reaction was carried out with the following cycling conditions: 50 °C for 45 min (cDNA synthesis), followed by 40 cycles of 95 °C for 10 s and 60 °C for 60 s. A negative control was included to ensure primer specificity and rule out contamination. Finally, the statistical analysis of the expression of the genes was performed using one-way ANOVA followed by the Tukey–Kramer post-test.
In general terms: Quantitative PCR measures a nucleic acid by following its amplification.

The mark [1] stands for this setting: Homo sapiens, MCF7, read-out: IC50 (µM) for MCF7 ± SD, MCF7 3D spheroids.
[2] abbreviates: read-out: IC50 (µM) for MCF7 ± SD, MCF7 3D spheroids.

Read-outs that look alike come from different tables or passages of the source.

Description for MCF7 3D spheroids: Eighty pre-plated synthetic chemical compounds were screened on two human cell lines: MCF7 (ATCC® HTB-22™), a Caucasian breast adenocarcinoma model, and hTERT-RPE-1 (ATCC® CRL-4000™), a normal retinal epithelial cell line immortalized by hTERT telomerase. […] The cells were cultured in DMEM-F12 medium supplemented with L-glutamine and 10% fetal bovine serum, all were purchase from Biowest (Biotechnology company in Nuaillé, France), and maintained in a controlled incubator environment set at 37 °C with 5% CO2 and 95% humidity.
3-D spheroid models were generated from MCF7 cancer and hTERT-RPE1 normal cells were seeded at 10,000 and 50,000 cells/well, respectively, in poly-HEMA coated round bottom plates according to the protocol previously mentioned[44]. The cells were incubated for 5 days to generate the spheroids with diameter of 500 ± 20 µm. The spheroids were imaged using Olympus S100, U-CMAD3 camera connected to Olympus inverted microscope and the diameter of the spheroids was measured using Cellscen-Entry software. Test compounds were added in triplicate to a final concentration of 50 µM and were incubated for 120 h. […] At the end of incubation, cytotoxicity was determined using the acid phosphatase method[45]. After washing twice with 250 μL PBS buffer, 100 μL of 0.1 M sodium citrate, 0.1% Triton X-100, p-nitrophenylphosphate (2 mg/ml) (Pierce Biotechnology Inc., Rockford, IL) was added to each well and incubated for 1.5 h at 37 °C. After incubation, 10 μL of 1N NaOH stop solution was added to each well, and absorbance was read at 405 nm. Cytotoxicity was calculated according to the following equation:

Consider `O=C(NCCc1c[nH]c2ccccc12)Nc1ccc(Cl)cc1` [D08, N-(4-chlorophenyl)-N'-[2-(1H-indol-3-yl)ethyl]urea], for which the “Cytotoxic effect% ± SD RPE1(50µM)” value in the data set with hTERT-RPE1 3D spheroids turned out to be 39.4 ± 1%. In addition, in the data set on MCF7 cell line, the “Fold increase (apoptosis signal vs DMSO negative control)” value (from here on “Fold increase”) turned out to be 2.14 fold. For the same compound, the cytotoxicity at 50 µM in the data set with MCF7 came out at 97.7 ± 0.47%; in the data set on MCF7 3D spheroids (Homo sapiens) it was 74 ± 2.9%. In addition, the IC50 in the data set with MCF7 3D spheroids (setting [1]) worked out at 36.9 ± 0.6 µM.
`COC(=O)c1cc(C=C(C#N)C#N)c(OC)cc1OC` [H09, methyl 5-(2,2-dicyanovinyl)-2,4-dimethoxybenzoate]: the “Cytotoxic effect% ± SD RPE1(50µM)” value with hTERT-RPE1 3D spheroids amounted to 41.2 ± 1.6%. In addition, the “Fold increase” value in the data set on MCF7 cell line was 2.56 fold. The results for the cytotoxicity at 50 µM with MCF7 and in the data set on MCF7 3D spheroids (Homo sapiens) were 86.2 ± 1.7% and 80.8 ± 0.77%, respectively. Further, in the data set with MCF7 3D spheroids (setting [1]), the IC50 worked out at 41.2 ± 0.83 µM.
As for `CCOC(=O)c1c(NS(=O)(=O)c2cccc3nsnc23)sc(C)c1C` [F03, ethyl 2-[(2,1,3-benzothiadiazol-4-ylsulfonyl)amino]-4,5-dimethylthiophene-3-carboxylate], in the data set on hTERT-RPE1 3D spheroids, the “Cytotoxic effect% ± SD RPE1(50µM)” value is on record as 34.4 ± 2.3%. The “Expression of apoptosis-related genes (Bax, P53, Bcl-2)” value (from here on “Expression of apoptosis-related genes”) in the data set on MCF7 breast cancer cells is on record as “moderate pro-apoptotic effect compared to the positive control”. Besides, the cytotoxicity at 50 µM in the data set with MCF7 is 70 ± 4%; in the data set on MCF7 3D spheroids (Homo sapiens), 91.5 ± 0.5%. In addition, the IC50 in the data set with MCF7 3D spheroids (setting [1]) is under 26 µM; with MCF7 3D spheroids (setting [2]), 18.8 ± 1.3 µM.
Regarding `COc1ccc(OCCC(=O)NNC(=S)Nc2cc(Cl)ccc2Cl)cc1` [F06, N1-(2,5-dichlorophenyl)-2-[3-(4-methoxyphenoxy)propanoyl]hydrazine-1-carbothioamide], the “Cytotoxic effect% ± SD RPE1(50µM)” value with hTERT-RPE1 3D spheroids came out at 18.4 ± 0.5%. Further, the “Expression of apoptosis-related genes” value in the data set with MCF7 breast cancer cells was “greater ability to downregulate Bcl-2 while upregulating both P53 and Bax expression compared to the other compounds”. The cytotoxicity at 50 µM was determined as 80.1 ± 1.7% with MCF7 and 88 ± 2.5% in the data set on MCF7 3D spheroids (Homo sapiens). The IC50 is under 26 µM in the data set on MCF7 3D spheroids (setting [1]) and 24.8 ± 0.6 µM with MCF7 3D spheroids (setting [2]).
Turning to `Nc1ccccc1SCC=CCSc1ccccc1N` [C02, 2-({4-[(2-aminophenyl)thio]but-2-enyl}thio)aniline], the “Cytotoxic effect% ± SD RPE1(50µM)” value in the data set with hTERT-RPE1 3D spheroids is 18.3 ± 0.4%. Also, in the data set with MCF7 breast cancer cells, the “Expression of apoptosis-related genes” value is given as “moderate pro-apoptotic effect compared to the positive control”. In addition, the cytotoxicity at 50 µM in the data set with MCF7 turned out to be 100 ± 0.003%; with MCF7 3D spheroids (Homo sapiens), 87.3 ± 4.5%. Also, the IC50 in the data set with MCF7 3D spheroids (setting [1]) is under 26 µM; with MCF7 3D spheroids (setting [2]), 25.3 ± 1.2 µM.
For the compound `N.N.[Cl][Pt][Cl]` [cisplatin, reference compound], in the data set with MCF7 breast cancer cells, the “Expression of inflammatory markers (IL-6, TNFα, MMP1)” value is “milder pro-inflammatory effects compared to the tested three compounds”. Besides, the IC50 with MCF7 3D spheroids (setting [2]) was 31.7 ± 1.5 µM.
In the case of `Cc1cccc(C)c1NC(=O)COC(=S)c1sc2ccccc2c1Cl` [A07, 2-(2,6-dimethylanilino)-2-oxoethyl 3-chlorobenzo[b] thiophene-2-carbothioate], the “Fold increase” value in the data set with MCF7 cell line turned out to be 3.64 fold. For the same compound, the cytotoxicity at 50 µM in the data set on MCF7 was determined as 36.5 ± 1.2%; in the data set on MCF7 3D spheroids (Homo sapiens) it was 75.1 ± 0.53%. Moreover, in the data set with MCF7 3D spheroids (setting [1]), the IC50 is 31.7 ± 1.2 µM.

A word on the IC50: it is the concentration needed to halve the response being measured.

(Values after PMC12663132, “Assessment of cytotoxicity of some synthetic compounds against breast carcinoma spheroids with subsequent analysis of pro-apoptotic and gene expression” (Scientific Reports, 2025).)
